This is an account of results in patent publication US8163901B2, “Amide derivatives as ion-channel ligands and pharmaceutical compositions and methods of using the same” (Evotec AG, priority 2008, dated 2012).

What all share (assay type): cell-based
In test [1] the target is T1, hVR1 (Homo sapiens, UniProt Q8NER1).
T1 construct: R710-07 (T-REx host cell line); host or cells: T-REx System cell line, called 'human keratinocyte cell line' and 'HEK 293 cells'
Nature of the test: Calcium uptake assay (FLIPR), inhibition of low pH (proton)-induced calcium influx. To be noted: agonist protons, low pH solution pH 5.7; cells expressing hVR1. The method, then: (§1) Functional activity of compounds against the VR1 receptor was determined by measuring changes in intracellular calcium in HEK 293 cells expressing hVR1. Compounds were examined for their ability to inhibit agonist-induced calcium influx. Relative levels of [Ca^2+] were monitored in a 96-well format using a calcium-sensitive fluorescence dye and a FLIPR TETRA, Molecular Devices.
(§2) Cells that express high levels of VR1 were obtained by generation of a cell line from human keratinocytes with heterologous expression of VR1 under control of an inducible promoter. Specifically, cells expressing human VR1 under the control of the human cytomegalovirus immediate-early (CMV) promoter and two tetracycline operator 2 (TetO2) sites were made using the T-REx System (Invitrogen, Carlsbad, Calif., USA). Details and methods concerning this system are published (Hum. Gene Ther. 9, pp. 1939-1950, 1998; Annu. Rev. Microbiol. 48, pp. 345-369, 1994; Mol. Biol. 169, pp. 707-'721, 1983). Human VR1 was subcloned into the T-REx System pcDNA5/TO vector (Invitrogen Cat# V1033-20) which was transfected into the T-REx System human keratinocyte cell line (Invitrogen Cat# R710-07) from which a stable cell line was established which expresses VR1 after induction by exposure to tetracycline or doxycycline (Hum. Gene Ther. 9, pp. 1939-1950, 1998; instructions that come with purchase of products noted above). Cells were maintained in a CO2 incubator (5% CO2) at 37° C. in culture medium containing DMEM with phenol red (Mediatech Cat #: 15-017-CV) supplemented with 10% heat-inactivated Fetal Bovine Serum, 5% Penicillin-streptomycin (Mediatech Cat #: 30-002-CI), 5% Glutamax® (L-Alanyl-L-Glutamine, Mediatech Cat #: 25-015-CI), 200 μg/ml hygromycin (Mediatech #:30-240-CR), 0.5 μg/ml blasticidin (Invitrogen #46-1120)).
For assay preparation, cells expressing human VR1 as described above were plated in 96-well plates (Becton Dickinson [BD] poly-D-lysine coated 96-well plates, cat #356692) at 55,000 cells per well in culture media (described above) that also contained 1 ug/ml doxycycline. Plated cells were then placed in an incubator (5% CO2) and incubated for 20-26 hours at 37° C., until the cells had grown to near confluency. Media was then aspirated from cells and 50 uL of dye-containing buffer (from Molecular Devices FLIPR Calcium 4 Assay kit, cat# R8141) was added to each well. Cells were then left in the dark at room temperature for 1.5-2 hours. Cell plates were then placed in the FLIPR TETRA (Molecular Devices, CA, USA). Test compounds and agonists were added to wells using the liquid handling capability of the FLIPR TETRA. Calcium responses of the cells were monitored by fluorescence readout of dye signal. Test compounds in saline (130 mM NaCl, 17 g/L sucrose, 1.8 g/L glucose, 8.8 mM HEPES, 3 mM KCl, 0.60 mM MgCl, 1.0 mM CaCl2; adjust to pH 7.4 using NaOH; 0.03% BSA added on the day of the experiment), or vehicle control in saline, were pre-incubated at the desired final concentrations in the dark at room temperature for 2 or 30 minutes with cells already containing the above mentioned dye buffer (dye solution was diluted 1:1 in culture wells with saline containing 2× the final concentration of test compound). Compound IC50 experiments were run using an agonist concentration at or near the EC50 of the agonist. […] Another agonist was protons via a low pH solution (saline solution described above plus 10 mM citric acid buffered to pH 5.7 with HCl instead of buffering to a neutral pH with NaOH as done for normal saline). Compounds were tested at various concentration ranges, depending upon potency of compound. After the 2 minute or 30 minute compound pre-treatment, treatment solution was then added to cells by adding a volume of treatment solution equal to the pretreatment solution already on the cells. […]

The target in test [2] is T1, hVR1. The test is described as follows: Determination of pA2 values against capsaicin stimulation (Ca2+ imaging, Schild analysis). The method, then:
Changes in the fluorescence signal (λex=470-495 nm, λem=515-575 nm) are monitored throughout the experiment before agonist addition and for at least 2 min after agonist addition (enough time for the fluorescence response to reach and then decline from the absolute maximum, agonist-induced signal attained). For each well, final relative fluorescence units (RFUs) are calculated as the difference between the maximum fluorescence signal obtained in the experiment after agonist addition and the signal level seen at baseline before agonist, but after antagonist, addition (the absolute minimum level of fluorescence signal observed in the 10 seconds prior to agonist addition). […] Data are fit to an ideal curve utilizing the 4-parameter sigmoid curve-fit function in GraphPad Prism software (version 4, GraphPad Software, Inc., San Diego, Calif., USA) from which an EC50 value is obtained. […] For each antagonist, at least three concentrations are tested. Dose Ratio values are then used to make a standard Schild plot—log [antagonist concentration] plotted against log [DR−1], see Kenakin reference above for theoretical background and method. A linear regression curve-fit is then performed on these plotted points. […] If these conditions are not met, then the antagonist is rerun in a pA2 assay using different antagonist concentrations until the above conditions are met.

The target in test [3] is T1, hVR1. Nature of the test: Calcium uptake assay (FLIPR), inhibition of capsaicin-induced calcium influx. How it is done: as §1, §2
For assay preparation, cells expressing human VR1 as described above were plated in 96-well plates (Becton Dickinson [BD] poly-D-lysine coated 96-well plates, cat #356692) at 55,000 cells per well in culture media (described above) that also contained 1 ug/ml doxycycline. Plated cells were then placed in an incubator (5% CO2) and incubated for 20-26 hours at 37° C., until the cells had grown to near confluency. Media was then aspirated from cells and 50 uL of dye-containing buffer (from Molecular Devices FLIPR Calcium 4 Assay kit, cat# R8141) was added to each well. Cells were then left in the dark at room temperature for 1.5-2 hours. Cell plates were then placed in the FLIPR TETRA (Molecular Devices, CA, USA). Test compounds and agonists were added to wells using the liquid handling capability of the FLIPR TETRA. Calcium responses of the cells were monitored by fluorescence readout of dye signal. Test compounds in saline (130 mM NaCl, 17 g/L sucrose, 1.8 g/L glucose, 8.8 mM HEPES, 3 mM KCl, 0.60 mM MgCl, 1.0 mM CaCl2; adjust to pH 7.4 using NaOH; 0.03% BSA added on the day of the experiment), or vehicle control in saline, were pre-incubated at the desired final concentrations in the dark at room temperature for 2 or 30 minutes with cells already containing the above mentioned dye buffer (dye solution was diluted 1:1 in culture wells with saline containing 2× the final concentration of test compound). […] Another agonist was protons via a low pH solution (saline solution described above plus 10 mM citric acid buffered to pH 5.7 with HCl instead of buffering to a neutral pH with NaOH as done for normal saline). Compounds were tested at various concentration ranges, depending upon potency of compound. After the 2 minute or 30 minute compound pre-treatment, treatment solution was then added to cells by adding a volume of treatment solution equal to the pretreatment solution already on the cells.

T1 sequence (Q8NER1 whole entry): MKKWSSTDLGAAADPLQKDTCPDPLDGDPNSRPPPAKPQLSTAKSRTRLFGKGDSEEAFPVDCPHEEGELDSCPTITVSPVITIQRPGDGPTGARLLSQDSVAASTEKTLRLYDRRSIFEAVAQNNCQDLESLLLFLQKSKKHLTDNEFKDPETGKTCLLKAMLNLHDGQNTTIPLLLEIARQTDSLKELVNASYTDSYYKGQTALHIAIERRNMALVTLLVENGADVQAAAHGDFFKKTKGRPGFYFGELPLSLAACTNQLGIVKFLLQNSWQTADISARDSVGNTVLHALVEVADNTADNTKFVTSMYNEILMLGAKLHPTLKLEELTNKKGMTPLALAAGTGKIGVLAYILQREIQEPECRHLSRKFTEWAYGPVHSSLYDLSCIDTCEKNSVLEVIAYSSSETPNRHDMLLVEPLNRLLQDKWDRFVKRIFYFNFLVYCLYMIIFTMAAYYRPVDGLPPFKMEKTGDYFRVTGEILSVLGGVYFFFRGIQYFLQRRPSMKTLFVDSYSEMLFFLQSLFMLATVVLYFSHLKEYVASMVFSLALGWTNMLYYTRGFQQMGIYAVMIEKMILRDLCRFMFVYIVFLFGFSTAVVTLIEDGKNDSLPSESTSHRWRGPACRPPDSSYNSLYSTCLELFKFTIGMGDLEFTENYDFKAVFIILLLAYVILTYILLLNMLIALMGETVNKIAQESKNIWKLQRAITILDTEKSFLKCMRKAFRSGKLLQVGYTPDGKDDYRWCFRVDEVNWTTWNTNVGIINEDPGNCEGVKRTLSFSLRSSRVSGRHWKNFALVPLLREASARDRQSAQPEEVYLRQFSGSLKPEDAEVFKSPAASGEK

In general, IC50 refers to the concentration at which inhibition is half-maximal. As for `CC(=O)N1CCc2ccc(NC(=O)[C@@H]3CCc4nc(C(C)(C)C(F)(F)F)ccc4C3)cc21` [Compound 23, (R)-2-(2,2,2-Trifluoro-1,1-dimethyl-ethyl)-5,6,7,8-tetrahydro-quinoline-6-carboxylic acid (1-acetyl-2,3-dihydro-1H-indol-6-yl)-amide], the IC50 in test [1] is 9 nM; in test [3], 2 nM. The compound further showed a Kb in test [2] of 5.91 nM.
